Values joined by “and” are separate entries in the source; they are usually repeats but may differ in a detail not shown here. Equal values may be shown once.
What was measured:
[1] = molecular target: SfurOBP1 (Sogatella furcifera, UniProt V5T8N5); test: biochemical; type: binding; settings: for Fluorescence competitive binding assay, fluorescence intensity: OBP1, three replicate columns
How it was run: (§1)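 In 50 mM Tris-HCl pH 7.4, odorants displace 1-NPN (2.0 µM) from 2.0 µM protein. Emission at 390–490 nm under 337 nm excitation is measured 2 min after competitor addition, in triplicate. Ki is obtained from IC50 and the 1-NPN dissociation constant.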

[2] = molecular target: SfurOBP3 (Sogatella furcifera, UniProt V5T818); test: biochemical; type: binding; settings: for Fluorescence competitive binding assay, fluorescence intensity: OBP3, three replicate columns;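 for Fluorescence competitive binding assay, fluorescence intensity: competitor odorant at 2 to 20 µM with protein and 1-NPN both 2.0 µM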
Sequence of SfurOBP3 (V5T818 entry or part of it): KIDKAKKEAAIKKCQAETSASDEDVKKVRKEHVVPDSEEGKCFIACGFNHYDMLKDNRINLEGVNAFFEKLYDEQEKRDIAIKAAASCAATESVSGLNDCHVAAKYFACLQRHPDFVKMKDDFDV
How it was run: as §1

[3] = molecular target: SfurOBP2 (Sogatella furcifera, UniProt V5T759); test: biochemical; type: binding
Sequence of SfurOBP2 (V5T759 entry or part of it): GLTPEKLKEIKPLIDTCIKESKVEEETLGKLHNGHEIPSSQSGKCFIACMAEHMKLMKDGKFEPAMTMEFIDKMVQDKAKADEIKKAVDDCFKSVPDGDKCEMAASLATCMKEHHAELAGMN
How it was run: as §1

[4] = molecular target: SfurOBP11 (Sogatella furcifera, UniProt V5T6E3); test: biochemical; type: binding
Sequence of SfurOBP11 (V5T6E3 entry or part of it): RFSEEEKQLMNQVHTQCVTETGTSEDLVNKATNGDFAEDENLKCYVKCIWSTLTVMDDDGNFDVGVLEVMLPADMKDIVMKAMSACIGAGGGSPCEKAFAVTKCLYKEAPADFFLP
How it was run: as §1

[5] = system: S. furcifera adults; test: Y-tube olfactometer behavioral trials; type: in vivo, Sogatella furcifera; settings: odorant 50 µL/L vs hexane; adults
How it was run: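 Single S. furcifera adults (2 days post-emergence, starved 0.5 h) chose between odorant (100 µL of 50 µL/L on filter paper) and hexane control in a glass Y-tube, charcoal-filtered humidified air 300 mL/min per arm, 25 ± 1 °C, 50% RH. Choice scored if insect passed half an arm and stayed >1 min within 10 min; 45 insects per compound, chi-squared test.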
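Throughout, for Fluorescence competitive binding assay, fluorescence intensity: competitor odorant at 2 to 20 µM with protein and 1-NPN both 2.0 µM.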

Sequence of SfurOBP1 (V5T8N5 entry or part of it): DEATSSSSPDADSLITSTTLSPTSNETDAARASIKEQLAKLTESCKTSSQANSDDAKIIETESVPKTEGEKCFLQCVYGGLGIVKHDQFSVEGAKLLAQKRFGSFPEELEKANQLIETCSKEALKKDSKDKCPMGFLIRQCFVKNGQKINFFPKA

O=Cc1ccccc1 [benzaldehyde]
IC50 [1]: > 20 µM
Fluorescence competitive binding assay, fluorescence intensity ([1]; ligand concentration 2 (μM)): 6748 and 7004 and 6492
Fluorescence competitive binding assay, fluorescence intensity ([1]; ligand concentration 4 (μM)): 7245 and 7115 and 7374
Fluorescence competitive binding assay, fluorescence intensity ([1]; ligand concentration 6 (μM)): 6061 and 6132 and 7040
Fluorescence competitive binding assay, fluorescence intensity ([1]; ligand concentration 8 (μM)): 7119 and 7198 and 8488
Fluorescence competitive binding assay, fluorescence intensity ([1]; ligand concentration 10 (μM)): 6689 and 6820 and 6663
Fluorescence competitive binding assay, fluorescence intensity ([1]; ligand concentration 12 (μM)): 6039 and 7567 and 5952
Fluorescence competitive binding assay, fluorescence intensity ([1]; ligand concentration 14 (μM)): 5985 and 6868 and 6969
Fluorescence competitive binding assay, fluorescence intensity ([1]; ligand concentration 16 (μM)): 5390 and 5637 and 6081
Fluorescence competitive binding assay, fluorescence intensity ([1]; ligand concentration 18 (μM)): 7493 and 9048 and 6239
Fluorescence competitive binding assay, fluorescence intensity ([1]; ligand concentration 20 (μM)): 8583 and 7861 and 5961
IC50 [2]: > 20 µM
Fluorescence competitive binding assay, fluorescence intensity ([2]; ligand concentration 2): 45330 and 44709 and 45950
Fluorescence competitive binding assay, fluorescence intensity ([2]; ligand concentration 4): 42404 and 44063 and 46652
Fluorescence competitive binding assay, fluorescence intensity ([2]; ligand concentration 6): 42957 and 46006 and 45764
Fluorescence competitive binding assay, fluorescence intensity ([2]; ligand concentration 8): 41484 and 44807 and 44761
Fluorescence competitive binding assay, fluorescence intensity ([2]; ligand concentration 10): 42296 and 40919 and 43670
Fluorescence competitive binding assay, fluorescence intensity ([2]; ligand concentration 12): 40362 and 40474 and 40259
Fluorescence competitive binding assay, fluorescence intensity ([2]; ligand concentration 14): 36140 and 35545 and 34940
Fluorescence competitive binding assay, fluorescence intensity ([2]; ligand concentration 16): 32608 and 31985 and 31371
Fluorescence competitive binding assay, fluorescence intensity ([2]; ligand concentration 18): 31185 and 31705 and 30913
Fluorescence competitive binding assay, fluorescence intensity ([2]; ligand concentration 20): 30533 and 30370 and 31330
IC50 [3]: > 20 µM
Fluorescence competitive binding assay, OBP2 (raw fluorescence reading) ([3]; ligand concentration 2 (unit not given), replicate column 1 of 3): 15507
Fluorescence competitive binding assay, OBP2 (raw fluorescence reading) ([3]; ligand concentration 2 (unit not given), replicate column 2 of 3): 14848
Fluorescence competitive binding assay, OBP2 (raw fluorescence reading) ([3]; ligand concentration 2 (unit not given), replicate column 3 of 3): 15027
Fluorescence competitive binding assay, OBP2 (raw fluorescence reading) ([3]; ligand concentration 4 (unit not given), replicate column 1 of 3): 14937
Fluorescence competitive binding assay, OBP2 (raw fluorescence reading) ([3]; ligand concentration 4 (unit not given), replicate column 2 of 3): 13962
Fluorescence competitive binding assay, OBP2 (raw fluorescence reading) ([3]; ligand concentration 4 (unit not given), replicate column 3 of 3): 14585
Fluorescence competitive binding assay, OBP2 (raw fluorescence reading) ([3]; ligand concentration 6 (unit not given), replicate column 1 of 3): 13559
Fluorescence competitive binding assay, OBP2 (raw fluorescence reading) ([3]; ligand concentration 6 (unit not given), replicate column 2 of 3): 14529
Fluorescence competitive binding assay, OBP2 (raw fluorescence reading) ([3]; ligand concentration 6 (unit not given), replicate column 3 of 3): 14868
Fluorescence competitive binding assay, OBP2 (raw fluorescence reading) ([3]; ligand concentration 8 (unit not given), replicate column 1 of 3): 13310
Fluorescence competitive binding assay, OBP2 (raw fluorescence reading) ([3]; ligand concentration 8 (unit not given), replicate column 2 of 3): 14622
Fluorescence competitive binding assay, OBP2 (raw fluorescence reading) ([3]; ligand concentration 8 (unit not given), replicate column 3 of 3): 14449
Fluorescence competitive binding assay, OBP2 (raw fluorescence reading) ([3]; ligand concentration 10 (unit not given), replicate column 1 of 3): 13559
Fluorescence competitive binding assay, OBP2 (raw fluorescence reading) ([3]; ligand concentration 10 (unit not given), replicate column 2 of 3): 13459
Fluorescence competitive binding assay, OBP2 (raw fluorescence reading) ([3]; ligand concentration 10 (unit not given), replicate column 3 of 3): 14101
Fluorescence competitive binding assay, OBP2 (raw fluorescence reading) ([3]; ligand concentration 12 (unit not given), replicate column 1 of 3): 13500
Fluorescence competitive binding assay, OBP2 (raw fluorescence reading) ([3]; ligand concentration 12 (unit not given), replicate column 2 of 3): 13742
Fluorescence competitive binding assay, OBP2 (raw fluorescence reading) ([3]; ligand concentration 12 (unit not given), replicate column 3 of 3): 13318
Fluorescence competitive binding assay, OBP2 (raw fluorescence reading) ([3]; ligand concentration 14 (unit not given), replicate column 1 of 3): 12764
Fluorescence competitive binding assay, OBP2 (raw fluorescence reading) ([3]; ligand concentration 14 (unit not given), replicate column 2 of 3): 13284
Fluorescence competitive binding assay, OBP2 (raw fluorescence reading) ([3]; ligand concentration 14 (unit not given), replicate column 3 of 3): 13618
Fluorescence competitive binding assay, OBP2 (raw fluorescence reading) ([3]; ligand concentration 16 (unit not given), replicate column 1 of 3): 12066
Fluorescence competitive binding assay, OBP2 (raw fluorescence reading) ([3]; ligand concentration 16 (unit not given), replicate column 2 of 3): 12546
Fluorescence competitive binding assay, OBP2 (raw fluorescence reading) ([3]; ligand concentration 16 (unit not given), replicate column 3 of 3): 12131
Fluorescence competitive binding assay, OBP2 (raw fluorescence reading) ([3]; ligand concentration 18 (unit not given), replicate column 1 of 3): 11847
Fluorescence competitive binding assay, OBP2 (raw fluorescence reading) ([3]; ligand concentration 18 (unit not given), replicate column 2 of 3): 12489
Fluorescence competitive binding assay, OBP2 (raw fluorescence reading) ([3]; ligand concentration 18 (unit not given), replicate column 3 of 3): 12075
Fluorescence competitive binding assay, OBP2 (raw fluorescence reading) ([3]; ligand concentration 20 (unit not given), replicate column 1 of 3): 11984
Fluorescence competitive binding assay, OBP2 (raw fluorescence reading) ([3]; ligand concentration 20 (unit not given), replicate column 2 of 3): 12356
Fluorescence competitive binding assay, OBP2 (raw fluorescence reading) ([3]; ligand concentration 20 (unit not given), replicate column 3 of 3): 11918
IC50 [4]: > 20 µM
Fluorescence intensity, fluorescence competitive binding assay, OBP11 ([4]; ligand concentration 2, replicate 1): 25700
Fluorescence intensity, fluorescence competitive binding assay, OBP11 ([4]; ligand concentration 2, replicate 2): 26420
Fluorescence intensity, fluorescence competitive binding assay, OBP11 ([4]; ligand concentration 2, replicate 3): 26489
Fluorescence intensity, fluorescence competitive binding assay, OBP11 ([4]; ligand concentration 4, replicate 1): 25103
Fluorescence intensity, fluorescence competitive binding assay, OBP11 ([4]; ligand concentration 4, replicate 2): 25939
Fluorescence intensity, fluorescence competitive binding assay, OBP11 ([4]; ligand concentration 4, replicate 3): 26917
Fluorescence intensity, fluorescence competitive binding assay, OBP11 ([4]; ligand concentration 6, replicate 1): 24540
Fluorescence intensity, fluorescence competitive binding assay, OBP11 ([4]; ligand concentration 6, replicate 2): 24263
Fluorescence intensity, fluorescence competitive binding assay, OBP11 ([4]; ligand concentration 6, replicate 3): 26004
Fluorescence intensity, fluorescence competitive binding assay, OBP11 ([4]; ligand concentration 8, replicate 1): 24810
Fluorescence intensity, fluorescence competitive binding assay, OBP11 ([4]; ligand concentration 8, replicate 2): 23717
Fluorescence intensity, fluorescence competitive binding assay, OBP11 ([4]; ligand concentration 8, replicate 3): 25921
Fluorescence intensity, fluorescence competitive binding assay, OBP11 ([4]; ligand concentration 10, replicate 1): 21750
Fluorescence intensity, fluorescence competitive binding assay, OBP11 ([4]; ligand concentration 10, replicate 2): 22655
Fluorescence intensity, fluorescence competitive binding assay, OBP11 ([4]; ligand concentration 10, replicate 3): 24544
Fluorescence intensity, fluorescence competitive binding assay, OBP11 ([4]; ligand concentration 12, replicate 1): 22377
Fluorescence intensity, fluorescence competitive binding assay, OBP11 ([4]; ligand concentration 12, replicate 2): 22204
Fluorescence intensity, fluorescence competitive binding assay, OBP11 ([4]; ligand concentration 12, replicate 3): 22549
Fluorescence intensity, fluorescence competitive binding assay, OBP11 ([4]; ligand concentration 14, replicate 1): 20889
Fluorescence intensity, fluorescence competitive binding assay, OBP11 ([4]; ligand concentration 14, replicate 2): 20823
Fluorescence intensity, fluorescence competitive binding assay, OBP11 ([4]; ligand concentration 14, replicate 3): 20954
Fluorescence intensity, fluorescence competitive binding assay, OBP11 ([4]; ligand concentration 16, replicate 1): 18305
Fluorescence intensity, fluorescence competitive binding assay, OBP11 ([4]; ligand concentration 16, replicate 2): 18429
Fluorescence intensity, fluorescence competitive binding assay, OBP11 ([4]; ligand concentration 16, replicate 3): 20008
Fluorescence intensity, fluorescence competitive binding assay, OBP11 ([4]; ligand concentration 18, replicate 1): 18084
Fluorescence intensity, fluorescence competitive binding assay, OBP11 ([4]; ligand concentration 18, replicate 2): 18788
Fluorescence intensity, fluorescence competitive binding assay, OBP11 ([4]; ligand concentration 18, replicate 3): 18463
Fluorescence intensity, fluorescence competitive binding assay, OBP11 ([4]; ligand concentration 20, replicate 1): 17844
Fluorescence intensity, fluorescence competitive binding assay, OBP11 ([4]; ligand concentration 20, replicate 2): 18414
Fluorescence intensity, fluorescence competitive binding assay, OBP11 ([4]; ligand concentration 20, replicate 3): 17540
number of insects choosing hexane arm [5]: 10
number of insects choosing volatilies arm [5]: 7
number of insects failed (no choice) [5]: 23
